In patent publication US20220202905A1, “COMPOSITION FOR PREVENTING OR TREATING NEUROTROPHIC KERATITIS WHICH CONTAINS PACAP PEPTIDE OR STABILIZED PACAP PEPTIDE” (SENJU PHARMACEUTICAL CO., LTD., priority 2019, published 2022):
Square brackets hold non-standard residues; d marks the D form. Peptide text beside a SMILES is read from it. Ala(1H-tetrazol-5-yl) = N[C@@H](Cc1nnn[nH]1)C(=O)O; Nle = CCCC[C@H](N)C(=O)O

Assay: Peptide stability test, Tris buffer (pH 7.0), 60° C. storage, HPLC remaining rate
Assay type: physicochemical
Conditions: for remaining rate after correction for water, 60° C., 1 week preservation / remaining rate after correction for water, 60° C., 2 weeks preservation: 100 μM in Tris buffer pH 7.0
Method: Peptides 1, 2 and 6 to 9 synthesized in Example 2 were weighed and dissolved in Tris buffer (pH 7.0) to prepare 1.0 mM peptide solutions. Each solution was filtered with a Chromatdisk (product of Merck Millipore, Millex-GV, 0.22 μm). The filtrate was diluted to 100 μM with Tris buffer (pH 7.0) and dispensed into a tube (Protein LoBind Tube by Eppendorf Co.). The prepared peptide solutions were incubated for 1 week or 2 weeks in a 60° C. thermostatic bath to obtain stored samples. A simultaneously prepared sample among the peptide solutions that was not stored was used as a standard sample (initial sample). The standard sample and the stored samples were stored at −30° C. until sample analysis. Each stored sample was measured under the following HPLC analysis conditions 2, and the remaining rate after correction for water for each peptide among the stored samples was calculated in the same manner as Example 3. Guard column: XSelect CSH C18 by Waters Co., 5 μm, 4.6×20 mm Guard Cartridge Detection wavelength: 220 nm Mobile phase A: 0.1% formic acid aqueous solution Mobile phase B: 0.1% acetonitrile formate solution Measuring time: 20 minutes Measuring sample injection rate: 50 μL Flow rate: 1.0 mL/min Column temperature: 40° C. Sample cooler: 25° C. Mobile phase delivery: The mixing ratio of mobile phase A and mobile phase B was varied as shown in Table 5 for linear concentration gradient control. Peptides 12 to 25, 27 and 28 synthesized in Example 2 were weighed and dissolved in Tris buffer (pH 7.0) to prepare 1.0 mM peptide solutions. Each solution was filtered with a Chromatdisk (product of Merck Millipore, Millex-GV, 0.22 μm). The filtrate was diluted to 100 μM with Tris buffer (pH 7.0) and dispensed into a tube (Protein LoBind Tube by Eppendorf Co.). The prepared peptide solutions were incubated for one week or 2 weeks in a 60° C. thermostatic bath to obtain stored samples. A simultaneously prepared sample among the peptide solutions that was not stored was used as a standard sample (initial sample). The standard sample and the stored samples were stored at −30° C. until sample analysis. The remaining rate after correction for water for each peptide among the stored samples was calculated in the same manner as Example 4, and the results are shown in Table 7. Peptides 29 to 34 synthesized in Example 2 were weighed and dissolved in Tris buffer (pH 7.0) to prepare 1.0 mM peptide solutions. Each solution was filtered with a Chromatdisk (product of Merck Millipore, Millex-GV, 0.22 μm). The filtrate was diluted to 100 μM with Tris buffer (pH 7.0) and dispensed into a tube (Protein LoBind Tube by Eppendorf Co.). The prepared peptide solutions were incubated for 2 weeks in a 60° C. thermostatic bath to obtain stored samples. A simultaneously prepared sample among the peptide solutions that was not stored was used as a standard sample (initial sample). The standard sample and the stored samples were stored at −30° C. until sample analysis. The remaining rate after correction for water for each peptide among the stored samples was calculated in the same manner as Example 4, and the results are shown in Table 7-2. Peptide 26 synthesized in Example 2 was weighed and dissolved in Tris buffer (pH 7.0) to prepare a 1.0 mM peptide solution. The solution was filtered with a Chromatdisk (product of Merck Millipore, Millex-GV, 0.22 μm). The filtrate was diluted to 100 μM with Tris buffer (pH 7.0) and dispensed into a tube (Protein LoBind Tube by Eppendorf Co.). The prepared peptide solution was incubated for one week or 2 weeks in a 60° C. thermostatic bath to obtain stored samples. A simultaneously prepared sample among the peptide solutions that was not stored was used as a standard sample (initial sample). The standard sample and the stored sample were stored at −30° C. until sample analysis. […]

remaining rate after correction for water, 60° C., 1 week preservation (Table 6, HPLC conditions 2) | remaining rate after correction for water, 60° C., 2 weeks preservation (Table 6, HPLC conditions 2) | expected remaining rate for 2 years at room temperature (buffer, 336 h) | remaining rate after correction for water, 60° C., 1 week preservation (Table 7) | remaining rate after correction for water, 60° C., 2 weeks preservation (Table 7) | Structure (SMILES)
91.7% | 84.8% |  |  |  | CC[C@H](C)[C@H](NC(=O)CNC(=O)[C@H](Cc1nnn[nH]1)NC(=O)[C@H](CO)NC(=O)[C@@H](N)Cc1c[nH]cn1)C(=O)N[C@@H](Cc1ccccc1)C(=O)N[C@H](C(=O)N[C@@H](Cc1nnn[nH]1)C(=O)N[C@@H](CO)C(=O)N[C@@H](Cc1ccc(O)cc1)C(=O)N[C@@H](CO)C(=O)N[C@@H](CCCNC(=N)N)C(=O)N[C@@H](Cc1ccc(O)cc1)C(=O)N[C@@H](CCCNC(=N)N)C(=O)N[C@@H](CCCCN)C(=O)N[C@@H](CCC(N)=O)C(=O)N[C@@H](CC(C)C)C(=O)N[C@@H](C)C(=O)N[C@H](C(=O)N[C@@H](CCCCN)C(=O)N[C@@H](CCCCN)C(=O)N[C@@H](Cc1ccc(O)cc1)C(=O)N[C@@H](CC(C)C)C(=O)N[C@@H](C)C(=O)N[C@@H](C)C(=O)N[C@H](C(=O)N[C@@H](CC(C)C)C(N)=O)C(C)C)C(C)C)[C@@H](C)O [Peptide 7] (H-HS[Ala(1H-tetrazol-5-yl)]GIFT[Ala(1H-tetrazol-5-yl)]SYSRYRKQLAVKKYLAAVL-NH2)
 |  | ≥ 90% |  |  | CCCC[C@H](NC(=O)[C@H](CCC(N)=O)NC(=O)[C@H](CCCCN)NC(=O)[C@H](CCCNC(=N)N)NC(=O)[C@H](Cc1ccc(O)cc1)NC(=O)[C@H](CCCNC(=N)N)NC(=O)[C@H](CO)NC(=O)[C@H](Cc1ccc(O)cc1)NC(=O)[C@H](CO)NC(=O)[C@H](Cc1nnn[nH]1)NC(=O)[C@@H](NC(=O)[C@H](Cc1ccccc1)NC(=O)[C@@H](NC(=O)CNC(=O)[C@H](Cc1nnn[nH]1)NC(=O)[C@H](CO)NC(=O)[C@H](Cc1c[nH]cn1)NC(C)=O)[C@@H](C)CC)[C@@H](C)O)C(=O)N[C@@H](C)C(=O)N[C@H](C(=O)N[C@@H](CCCCN)C(=O)N[C@@H](CCCCN)C(=O)N[C@@H](Cc1ccc(O)cc1)C(=O)N[C@@H](CC(C)C)C(=O)N[C@@H](C)C(=O)N[C@@H](C)C(=O)N[C@H](C(=O)N[C@@H](CC(C)C)C(N)=O)C(C)C)C(C)C [Peptide 8] (Ac-HS[Ala(1H-tetrazol-5-yl)]GIFT[Ala(1H-tetrazol-5-yl)]SYSRYRKQ[Nle]AVKKYLAAVL-NH2)
 |  |  | 96.7% | 94.5% | CC[C@H](C)[C@H](NC(=O)CNC(=O)[C@H](Cc1nnn[nH]1)NC(=O)[C@H](C)NC(=O)[C@H](Cc1c[nH]cn1)NC(C)=O)C(=O)N[C@@H](Cc1ccccc1)C(=O)N[C@H](C(=O)N[C@@H](Cc1nnn[nH]1)C(=O)N[C@@H](CO)C(=O)N[C@@H](Cc1ccc(O)cc1)C(=O)N[C@@H](CO)C(=O)N[C@@H](CCCNC(=N)N)C(=O)N[C@@H](Cc1ccc(O)cc1)C(=O)N[C@@H](CCCNC(=N)N)C(=O)N[C@@H](CCCCN)C(=O)N[C@@H](CCC(N)=O)C(=O)N[C@@H](CC(C)C)C(=O)N[C@@H](C)C(=O)N[C@H](C(=O)N[C@@H](CCCCN)C(=O)N[C@@H](CCCCN)C(=O)N[C@@H](Cc1ccc(O)cc1)C(=O)N[C@@H](CC(C)C)C(=O)N[C@@H](C)C(=O)N[C@@H](C)C(=O)N[C@H](C(=O)N[C@@H](CC(C)C)C(N)=O)C(C)C)C(C)C)[C@@H](C)O [Peptide 14] (Ac-HA[Ala(1H-tetrazol-5-yl)]GIFT[Ala(1H-tetrazol-5-yl)]SYSRYRKQLAVKKYLAAVL-NH2)
 |  |  | 98.1% | 93.5% | CC[C@H](C)[C@H](NC(=O)CNC(=O)[C@H](Cc1nnn[nH]1)NC(=O)[C@H](CO)NC(=O)[C@H](Cc1c[nH]cn1)NC(C)=O)C(=O)N[C@@H](Cc1ccccc1)C(=O)N[C@H](C(=O)N[C@@H](Cc1nnn[nH]1)C(=O)N[C@@H](CO)C(=O)N[C@@H](Cc1ccc(O)cc1)C(=O)N[C@@H](C)C(=O)N[C@@H](CCCNC(=N)N)C(=O)N[C@@H](Cc1ccc(O)cc1)C(=O)N[C@@H](CCCNC(=N)N)C(=O)N[C@@H](CCCCN)C(=O)N[C@@H](CCC(N)=O)C(=O)N[C@@H](CC(C)C)C(=O)N[C@@H](C)C(=O)N[C@H](C(=O)N[C@@H](CCCCN)C(=O)N[C@@H](CCCCN)C(=O)N[C@@H](Cc1ccc(O)cc1)C(=O)N[C@@H](CC(C)C)C(=O)N[C@@H](C)C(=O)N[C@@H](C)C(=O)N[C@H](C(=O)N[C@@H](CC(C)C)C(N)=O)C(C)C)C(C)C)[C@@H](C)O [Peptide 16] (Ac-HS[Ala(1H-tetrazol-5-yl)]GIFT[Ala(1H-tetrazol-5-yl)]SYARYRKQLAVKKYLAAVL-NH2)
 |  |  | 97.8% | 93.4% | CC[C@H](C)[C@H](NC(=O)CNC(=O)[C@H](Cc1nnn[nH]1)NC(=O)[C@H](CO)NC(=O)[C@H](Cc1c[nH]cn1)NC(C)=O)C(=O)N[C@@H](Cc1ccccc1)C(=O)N[C@H](C(=O)N[C@@H](Cc1nnn[nH]1)C(=O)N[C@@H](CO)C(=O)N[C@@H](Cc1ccc(O)cc1)C(=O)N[C@@H](CO)C(=O)N[C@@H](CCCNC(=N)N)C(=O)N[C@@H](Cc1ccc(O)cc1)C(=O)N[C@@H](CCCNC(=N)N)C(=O)N[C@@H](CCCCN)C(=O)N[C@@H](C)C(=O)N[C@@H](CC(C)C)C(=O)N[C@@H](C)C(=O)N[C@H](C(=O)N[C@@H](CCCCN)C(=O)N[C@@H](CCCCN)C(=O)N[C@@H](Cc1ccc(O)cc1)C(=O)N[C@@H](CC(C)C)C(=O)N[C@@H](C)C(=O)N[C@@H](C)C(=O)N[C@H](C(=O)N[C@@H](CC(C)C)C(N)=O)C(C)C)C(C)C)[C@@H](C)O [Peptide 17] (Ac-HS[Ala(1H-tetrazol-5-yl)]GIFT[Ala(1H-tetrazol-5-yl)]SYSRYRKALAVKKYLAAVL-NH2)
 |  |  | 93.9% | 91.8% | CC[C@H](C)[C@H](NC(=O)CNC(=O)[C@H](Cc1nnn[nH]1)NC(=O)[C@H](CO)NC(=O)[C@H](Cc1c[nH]cn1)NC(C)=O)C(=O)N[C@@H](Cc1ccccc1)C(=O)N[C@H](C(=O)N[C@@H](Cc1nnn[nH]1)C(=O)N[C@@H](CO)C(=O)N[C@@H](Cc1ccc(O)cc1)C(=O)N[C@@H](CO)C(=O)N[C@@H](CCCNC(=N)N)C(=O)N[C@@H](Cc1ccc(O)cc1)C(=O)N[C@@H](CCCNC(=N)N)C(=O)N[C@@H](CCCCN)C(=O)N[C@@H](CCC(N)=O)C(=O)N[C@@H](CC(C)C)C(=O)N[C@@H](C)C(=O)N[C@H](C(=O)N[C@@H](CCCCN)C(=O)N[C@@H](CCCCN)C(=O)N[C@@H](Cc1ccc(O)cc1)C(=O)N[C@@H](CC(C)C)C(=O)N[C@@H](C)C(=O)N[C@@H](C)C(=O)N[C@H](C(=O)N[C@@H](C)C(N)=O)C(C)C)C(C)C)[C@@H](C)O [Peptide 20] (Ac-HS[Ala(1H-tetrazol-5-yl)]GIFT[Ala(1H-tetrazol-5-yl)]SYSRYRKQLAVKKYLAAVA-NH2)
 |  |  | 97.8% | 93.5% | CC[C@H](C)[C@H](NC(=O)CNC(=O)[C@H](Cc1nnn[nH]1)NC(=O)[C@H](CO)NC(=O)[C@H](Cc1c[nH]cn1)NC(C)=O)C(=O)N[C@@H](Cc1ccccc1)C(=O)N[C@H](C(=O)N[C@@H](Cc1nnn[nH]1)C(=O)N[C@@H](CO)C(=O)N[C@@H](Cc1ccc(O)cc1)C(=O)N[C@@H](CO)C(=O)N[C@@H](CCCNC(=N)N)C(=O)N[C@@H](Cc1ccc(O)cc1)C(=O)N[C@@H](CCCNC(=N)N)C(=O)N[C@@H](CCCNC(=N)N)C(=O)N[C@@H](CCC(N)=O)C(=O)N[C@@H](CC(C)C)C(=O)N[C@@H](C)C(=O)N[C@H](C(=O)N[C@@H](CCCNC(=N)N)C(=O)N[C@@H](CCCNC(=N)N)C(=O)N[C@@H](Cc1ccc(O)cc1)C(=O)N[C@@H](CC(C)C)C(=O)N[C@@H](C)C(=O)N[C@@H](C)C(=O)N[C@H](C(=O)N[C@@H](CC(C)C)C(N)=O)C(C)C)C(C)C)[C@@H](C)O [Peptide 21] (Ac-HS[Ala(1H-tetrazol-5-yl)]GIFT[Ala(1H-tetrazol-5-yl)]SYSRYRRQLAVRRYLAAVL-NH2)
